Test results as given in patent US20050282893A1 (priority 2004, published 2005).
Several values for one entry are separate records, joined by “and”; a condition that tells them apart may be missing. Equal values may be shown once. Read-outs that look alike come from different tables or passages of the source. Marks after values point to notes of the source that are not given here.

Experiments:
telomerase [1] = biological target: T1, telomerase (Homo sapiens, UniProt O14746); experiment: Telomerase activity after PPS exposure, modified quantitative TRAP assay; type: cell-based
Procedure: (§1) Inhibition of telomerase activity in cell lysates and intact cells. The modified Telomeric Repeat Amplification Protocol (TRAP) assay (Gan, et al., Pharm. Res., 18:488-493, 2001) was used to detect telomerase activity in cell lysate. The telomerase activity in intact cells was measured using intracellular TRAP, as follows. Cells (1×10^5) were washed twice with PBS and centrifuged. The cell pellet was resuspended in 100 μl of serum-free RPMI 1640 containing 5 u/ml of Streptolysin O, 2 μM of TS primer, and 50 μM of dNTP, and incubated at room temperature for 5 min. The enzyme streptolysin O was used to increase the cell membrane permeability to the TS primer. Upon entering a cell, the TS primer was elongated by the intracellular telomerase in situ. The elongated TS primer was then isolated from the cells and used as the template for PCR amplification. Then 200 μl of RPMI 1640 medium containing 10% FBS was added to the cells to stop the permeating process. The mixture was incubated at 30° C. for 30 min to allow the extension of intracellular TS primer by telomerase. The cells were then lyzed and the cell lysates, which contained the already extended TS primer, was directly analyzed by TRAP.
Treatment Protocol. Treatment with PPS was initiated after cells were allowed to attach to the growth surface in culture flasks. On the day of experiments, the culture medium was removed and replaced with inhibitor-containing medium. Drug concentrations of 0, 0.1, 1, 10, 100, 1000 μg/ml of PPS were employed. Telomerase activity was measured by the modified quantitative TRAP assay.
Target sequence in this assay (O14746 whole entry): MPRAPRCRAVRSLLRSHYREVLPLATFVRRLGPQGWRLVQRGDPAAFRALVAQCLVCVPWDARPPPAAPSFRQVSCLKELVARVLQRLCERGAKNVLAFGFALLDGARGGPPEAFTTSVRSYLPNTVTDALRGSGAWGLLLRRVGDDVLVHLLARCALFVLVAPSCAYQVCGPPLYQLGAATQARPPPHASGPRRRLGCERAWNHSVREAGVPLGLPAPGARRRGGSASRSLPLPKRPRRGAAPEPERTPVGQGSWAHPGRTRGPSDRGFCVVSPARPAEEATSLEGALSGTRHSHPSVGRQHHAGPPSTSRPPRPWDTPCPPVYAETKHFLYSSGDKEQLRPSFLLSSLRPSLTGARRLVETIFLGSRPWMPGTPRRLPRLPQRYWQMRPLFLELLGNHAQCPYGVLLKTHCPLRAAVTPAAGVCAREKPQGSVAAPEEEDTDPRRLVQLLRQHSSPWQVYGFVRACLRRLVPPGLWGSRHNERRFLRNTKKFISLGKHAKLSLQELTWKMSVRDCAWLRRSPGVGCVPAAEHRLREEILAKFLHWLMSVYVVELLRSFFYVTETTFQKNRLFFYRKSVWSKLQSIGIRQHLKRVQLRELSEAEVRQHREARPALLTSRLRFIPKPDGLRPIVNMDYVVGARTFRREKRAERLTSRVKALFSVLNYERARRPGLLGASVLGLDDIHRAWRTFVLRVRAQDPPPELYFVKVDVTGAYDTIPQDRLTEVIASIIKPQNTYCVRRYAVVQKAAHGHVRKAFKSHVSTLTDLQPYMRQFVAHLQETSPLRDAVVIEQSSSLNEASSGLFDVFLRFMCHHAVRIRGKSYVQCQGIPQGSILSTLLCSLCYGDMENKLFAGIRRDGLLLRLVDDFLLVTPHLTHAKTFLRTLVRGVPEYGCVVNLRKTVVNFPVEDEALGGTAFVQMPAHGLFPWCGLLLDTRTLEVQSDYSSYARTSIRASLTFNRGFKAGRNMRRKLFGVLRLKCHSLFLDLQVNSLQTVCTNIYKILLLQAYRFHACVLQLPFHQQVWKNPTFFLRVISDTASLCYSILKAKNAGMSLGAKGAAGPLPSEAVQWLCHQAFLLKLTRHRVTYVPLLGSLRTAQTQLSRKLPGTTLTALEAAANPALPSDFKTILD
Target sequence in this assay (O60832 whole entry partner): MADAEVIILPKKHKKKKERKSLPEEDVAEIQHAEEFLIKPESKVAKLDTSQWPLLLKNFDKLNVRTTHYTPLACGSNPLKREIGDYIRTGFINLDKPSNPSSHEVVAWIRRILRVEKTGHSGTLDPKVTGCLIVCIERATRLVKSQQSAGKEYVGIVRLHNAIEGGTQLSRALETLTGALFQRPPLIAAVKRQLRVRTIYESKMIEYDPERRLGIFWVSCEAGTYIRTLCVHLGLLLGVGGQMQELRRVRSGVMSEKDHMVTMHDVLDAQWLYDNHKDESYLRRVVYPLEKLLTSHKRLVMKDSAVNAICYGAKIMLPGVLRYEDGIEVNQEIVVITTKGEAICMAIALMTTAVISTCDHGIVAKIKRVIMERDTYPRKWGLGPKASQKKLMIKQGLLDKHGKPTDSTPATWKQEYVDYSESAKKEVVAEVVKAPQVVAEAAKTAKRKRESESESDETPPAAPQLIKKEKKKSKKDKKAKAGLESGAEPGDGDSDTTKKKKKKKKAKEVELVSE
Target sequence in this assay (Q9NPE3 whole entry partner): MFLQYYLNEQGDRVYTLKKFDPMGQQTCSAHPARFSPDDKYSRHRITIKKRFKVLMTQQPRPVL
Target sequence in this assay (Q9NX24 whole entry partner): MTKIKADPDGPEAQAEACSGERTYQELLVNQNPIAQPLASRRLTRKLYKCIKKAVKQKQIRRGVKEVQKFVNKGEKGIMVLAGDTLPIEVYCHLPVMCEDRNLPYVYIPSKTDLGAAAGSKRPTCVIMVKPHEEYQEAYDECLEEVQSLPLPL
Target sequence in this assay (Q9NY12 whole entry partner): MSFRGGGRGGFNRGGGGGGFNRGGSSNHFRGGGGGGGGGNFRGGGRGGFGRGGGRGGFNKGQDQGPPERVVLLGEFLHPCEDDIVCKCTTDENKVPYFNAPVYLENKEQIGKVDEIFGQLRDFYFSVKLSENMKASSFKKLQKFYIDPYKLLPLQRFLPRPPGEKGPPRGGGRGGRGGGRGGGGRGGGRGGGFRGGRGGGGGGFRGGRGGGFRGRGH

[2] = system: renal cell carcinoma cells (RCC45 and RCC54); experiment: PPS single agent cytotoxicity, BrdU incorporation, renal cell carcinoma cells; type: cell-based
[3] = fifteenth day of oral treatment, about 400 mg per meter squared per day; cited from earlier work
anticoagulation = conditions: cited from earlier work
RCC45 = experiment: 5-Fluorouracil inhibition of BrdU incorporation (ELISA), RCC45; type: cell-based
Procedure: (§2) A study was performed using two renal cell carcinoma cells (RCC45 and RCC54). 5-Fluorouracil was used as the chemotherapeutic agent. Cells were treated with 5-fluorouracil for 96 hours, with and without PPS. The drug effect was measured as inhibition of the incorporation of a DNA precursor (bromodeoxyuridine or BrdU) using ELISA.

RCC54 = experiment: 5-Fluorouracil inhibition of BrdU incorporation (ELISA), RCC54; type: cell-based
Procedure: as §2

[4] = system: stage IIIB/IV nonsmall cell lung cancer; conditions: 290 patients; cited from earlier work
telomerase [5] = biological target: T1, telomerase; experiment: Modified TRAP assay, telomerase activity in cell lysate (cell extract); type: biochemical; conditions: mean ± SD, read-out: IC50, inhibition of telomerase activity
Procedure: as §1
Target sequence in this assay (O14746 whole entry): as the sequence (O14746 whole entry) above
Target sequence in this assay (O60832 whole entry partner): as the sequence (O60832 whole entry partner) above
Target sequence in this assay (Q9NPE3 whole entry partner): as the sequence (Q9NPE3 whole entry partner) above
Target sequence in this assay (Q9NX24 whole entry partner): as the sequence (Q9NX24 whole entry partner) above
Target sequence in this assay (Q9NY12 whole entry partner): as the sequence (Q9NY12 whole entry partner) above
Treatment Protocol. Treatment with suramin or AZT was initiated after cells were allowed to attach to the growth surface in culture flasks. […]

telomerase [6] = biological target: T1, telomerase; experiment: Intracellular TRAP, telomerase activity in intact cells; type: cell-based; conditions: mean ± SD, read-out: IC50, inhibition of telomerase activity
Target sequence in this assay (O14746 whole entry): as the sequence (O14746 whole entry) above
Target sequence in this assay (O60832 whole entry partner): as the sequence (O60832 whole entry partner) above
Target sequence in this assay (Q9NPE3 whole entry partner): as the sequence (Q9NPE3 whole entry partner) above
Target sequence in this assay (Q9NX24 whole entry partner): as the sequence (Q9NX24 whole entry partner) above
Target sequence in this assay (Q9NY12 whole entry partner): as the sequence (Q9NY12 whole entry partner) above

[7] = system: telomere length in FaDu and PC3 cells; experiment: Telomere length in cultured cells after prolonged treatment (TALA / FISH); type: cell-based, human; conditions: prolonged treatment (7-15 weeks)
Text: Measurement of telomere length in cultured cells. Two methods were used to measure telomere length. The first method was a solution hybridization based telomere amount and length assay (TALA) (Gan, et al., Pharm. Res., 18:1655-1659, 2001) that measures the mean length of the terminal restriction fragments (TRF). The second method was fluorescence in situ hybridization (FISH) to detect telomere signal and to estimate the approximate length of individual telomere structures at the end of chromosomes. The FISH method is as described in U.S. patent application Ser. No. 09/587,662 and Gan, et al., 2001.
Treatment Protocol. Treatment with suramin or AZT was initiated after cells were allowed to attach to the growth surface in culture flasks. On the day of experiments, the culture medium was removed and replaced with inhibitor-containing medium.

telomerase [8] = biological target: T1, telomerase; experiment: Telomerase IC50 determination, general method; type: biochemical; conditions: read-out: IC50 against telomerase
Text: One method used to identify compounds of the invention that inhibit telomerase activity involves placing cells, tissues, or preferably a cellular extract or other preparation containing telomerase, in contact with several known concentrations of a test compound in a buffer compatible with telomerase activity. […] Other methods for determining the inhibitory concentration of a compound of the invention against telomerase can be employed as will be apparent to those of skill in the art based on the disclosure herein.
Target sequence in this assay (O14746 whole entry): as the sequence (O14746 whole entry) above

FaDu tumor = experiment: Telomere length by FISH in FaDu tumors implanted in mice; type: in vivo
Procedure: Treatment protocol. FaDu cells (0.5˜1×10^6 cells in a volume of 100 μl) were implanted subcutaneously in male BALB/c nu/nu mice. […] The first dose was administered immediately after tumor implantation, with repeat doses given twice a week thereafter. […] Frozen tissue sections were analyzed for telomere length in individual cells using fluorescent in situ hybridization. About 10 microscope fields at 400-fold magnification were randomly chosen for each section, and the percentage of tumor cells with attenuated or lost telomere signals were counted.

FaDu tumors = experiment: Low-dose suramin, tumor size in mice implanted with FaDu tumors; type: in vivo; conditions: one of six animals; suramin 10 mg/kg ip twice-weekly for 6 weeks
Procedure: Treatment Protocol. Immunosuppressed mice were injected subcutaneously in the thigh area with 5×10^5 FaDu cells. […] Tumor sizes were observed twice-weekly.

[9] = Suramin plasma pharmacokinetics in beagle dogs; type: in vivo; conditions: 6.75 mg/kg iv infusion over 30 minutes
Text: Treatment protocol. […] The animals were cannulated in the cephalic veins of both front legs.

[10] = Intravesical suramin in dogs: bladder contents, bladder wall and plasma concentrations; type: in vivo; conditions: for concentration at 120 min: beagle, dog, bladder wall tissue, other: intravesical, 6 mg/ml
Procedure: Treatment protocol Five beagle dogs, weighing 9.0±0.4 kg, were used. The animals were cannulated in a cephalic vein for administration of anesthetics, and in a jugular vein for blood sampling. A urethral catheter was inserted for dose instillation and sampling of the bladder contents. […] Concentrations of the bladder contents and systemic plasma were sampled at frequent intervals for 120 minutes, at which time the bladder tissue was harvested and the animal sacrificed. Tissue sections of approximately 2 cm×2 cm surface area were cut from the bladder wall, and rapidly frozen on a flat stainless steel plate cooled on dry ice. The outer edges of the tissue samples were trimmed to avoid contamination with instillation fluid, and the frozen tissues cut into 40 μm sections parallel to the urothelial surface.

[11] = human patients; cited from earlier work
in vivo = conditions: BALB/c nu/nu, mouse, plasma, intravenous, 10 mg/kg
FaDu cells = experiment: Paclitaxel cytotoxicity (SRB method) in hTR antisense-transfected FaDu cells; type: cell-based; conditions: Homo sapiens, paclitaxel 96 hours
Procedure: Effect of hTR antisense on the cytotoxic effect of […]. Two clones of cells that were stably transfected with the hTR antisense were studied. The cytotoxic effect of paclitaxel was quantified using the SRB method, which measures the total cellular proteins. The cells transfected with hTR antisense were treated with IPTG for 44 (clone#1) to 57 (clone #2) days, and then with paclitaxel for 96 hours.

[12] = system: human pharynx FaDu xenografts
Procedure: Xenografts were formed by subcutaneous injection of 106 viable tumor cells in 0.1 ml physiologic saline in the right and left flank areas, and were allowed to grow for about 14 days to reach a size of >15 mm^3 before drug treatment was started. […] The saline control group received injections of 200 μl/day of physiological saline for five consecutive days. The paclitaxel group received injections of 10 mg/kg/day paclitaxel dissolved in Cremophor and ethanol (i.e., Taxol) in a volume of 200 μl for five consecutive days. […] Animal weights and tumor sizes were measured on days 1, 3, 6, 8, and 10 after initiation of the paclitaxel treatment.
The antitumor effect of the drug treatments was measured in three ways. The first was the reduction in tumor size. Tumor sizes were determined by first preparing a mold of the extruding tumor using Jeltrate, a rapidly setting molding material, and then preparing and weighing the countermold. Second, the apoptotic effect was measured. The animals were euthanized on day 10, and the tumors were harvested and fixed in formalin. Histologic sections of 5-micron thickness were prepared and stained with hematoxylin and eosin. The tumor sections were evaluated morphologically for tumor cell density, and density of apoptotic cells. Because apoptotic cells disappear over time, the density of non-apoptotic cells is a secondary indicator of apoptosis. Cell densities were determined by counting the number of cells in four randomly selected microscopic fields at 400× magnification, using image analysis procedures (Song, et al., Proc. Natl. Acad. Sci. USA, 97:8658-8663, 2000). Third, the ability of drug treatment to prolong the survival time was measured. For this study, the animals were monitored for 100 days, or until moribundity, defined by a tumor length exceeding 1.0 cm, was reached.

Molecule: pentosan polysulfate [PPS]
- concentration resulting in 50% inhibition of telomerase activity (telomerase [1]; FaDu cells): 0.56 µg/mL
- concentration resulting in 50% inhibition of telomerase activity (telomerase [1]; SKOV-3 cells): 0.60 µg/mL
- concentrations resulting in 80% inhibition of telomerase activity (telomerase [1]; both cells (FaDu and SKOV-3)): less than 10 μg/ml
- concentrations resulting in 90% inhibition of telomerase activity (telomerase [1]; both cells (FaDu and SKOV-3)): less than 100 μg/ml
- concentrations required for 50% inhibition of telomerase activity (telomerase [1]; summary of Example 3): 0.5 to 0.6 µg/mL
- IC50 of PPS as a single agent ([2]; 96 hours, BrdU incorporation): ~1,400 μg/ml
- cytotoxicity of PPS ([2]; at 10 and 100 μg/ml): no cytotoxicity
- plasma concentrations [3]: 200 to 460 ng/mL
- concentrations at which anticoagulation is found (anticoagulation): above 1 μg/ml

Molecule: O=c1[nH]cc(F)c(=O)[nH]1 [5-fluorouracil]
- IC50 (RCC45; RCC45, No PPS): 7.58 µM
- IC50 (RCC45; RCC45, With 10 μg/ml PPS): 5.15 µM
- IC50 (RCC54; RCC54, No PPS): 7.27 µM
- IC50 (RCC54; RCC54, With 10 μg/ml PPS): 4.65 µM
- IC50 (RCC54; RCC54, With 10 μg/ml PPS plus 30 μM suramin): 2.34 µM
- IC50 (RCC54; RCC54, With 100 μg/ml PPS): 3.58 µM

Molecule: paclitaxel/carboplatin
- MST [4]: 8.1 months
- TTP [4]: 3.1 months
- complete response [4]: < 1%
- overall response rate [4]: about 17%

Molecule: Cc1ccc(C(=O)Nc2ccc(S(=O)(=O)O)c3cc(S(=O)(=O)O)cc(S(=O)(=O)O)c23)cc1NC(=O)c1cccc(NC(=O)Nc2cccc(C(=O)Nc3cc(C(=O)Nc4ccc(S(=O)(=O)O)c5cc(S(=O)(=O)O)cc(S(=O)(=O)O)c45)ccc3C)c2)c1 [Suramin, suramin]
- IC50 (telomerase [5]; MCF7, cell extract): 2.8 ± 1.5 µM
- IC50 (telomerase [5]; PC3, cell extract): 1.6 ± 0.7 µM
- IC50 (telomerase [6]; FaDu, intact cell): 1.7 ± 1 µM
- IC50 (telomerase [6]; MCF7, intact cell): 1.4 ± 1.1 µM
- IC50 (telomerase [6]; PC3, intact cell): 2.3 ± 0.9 µM
- telomere shortening [7]: about 30%
- IC50 (telomerase [8]): < 10 µM
- bodyweight increase compared with saline (FaDu tumor; 10 mg/kg iv twice a week): undistinguishable rates of bodyweight increases
- tumor establishment rate (FaDu tumor; 10 mg/kg iv twice a week from implantation): 100%
- fraction of cells with a reduced or eliminated telomere signal (FaDu tumor; first two weeks of treatment, 10 mg/kg iv twice a week): approximately 10%
- fraction of cells with a reduced or eliminated telomere signal (FaDu tumor; week 3, 10 mg/kg iv twice a week): approximately 40%
- fraction of cells with a reduced or eliminated telomere signal (FaDu tumor; week 4, 10 mg/kg iv twice a week): 75%
- fraction of cells with a reduced or eliminated telomere signal (FaDu tumor; week 5, 10 mg/kg iv twice a week): over 80%
- fraction of cells with a reduced or eliminated telomere signal (FaDu tumor; week 6, 10 mg/kg iv twice a week): 95%
- tumor outcome (FaDu tumors): completely disappeared
- terminal half-life ([9]; 6.75 mg/kg): 13 days
- half-life ([9]; beagle, dog, plasma, read-out: terminal half-life (converted)): 13 days
- clearance ([9]; beagle, dog, plasma, read-out: total clearance (converted)): 2.1 mL/h/kg
- suramin concentration in the bladder contents ([10]; 120 minutes after intravesical 6 mg/ml): 3.6 mg/mL
- plasma concentrations ([10]; at all times, intravesical 6 mg/ml): less than 0.1 μg/ml
- concentration at 120 min ([10]; at 0 mm (urethral surface), 120 minutes, read-out: bladder wall tissue concentration): ~80000 ng/g
- concentration at 120 min ([10]; at approximately 2 mm depth, read-out: bladder wall tissue concentration): ~3000 ng/g
- concentration at 120 min ([10]; remainder of the bladder wall, read-out: bladder wall tissue concentration): ~3000 ng/g
- concentration at 120 min ([10]; summary of Example 13, read-out: concentrations in the targeted tissues after local administration): 5000 to 100000 ng/g
- half-life, first phase of triphasic plasma decline [11]: 0.229 days
- half-life, second phase of triphasic plasma decline [11]: 4.1 days
- half-life, third phase of triphasic plasma decline [11]: 78 days
- total body clearance [11]: 0.0095 liter/hour/m^2
- concentration at 72 h (in vivo): ~10 µM and ~14000 ng/mL

Molecule: CC(=O)O[C@H]1C(=O)[C@@]2(C)[C@H]([C@H](OC(=O)c3ccccc3)[C@]3(O)C[C@H](OC(=O)[C@H](O)[C@@H](NC(=O)c4ccccc4)c4ccccc4)C(C)=C1C3(C)C)[C@]1(OC(C)=O)CO[C@@H]1C[C@@H]2O [paclitaxel]
- IC50 (FaDu cells; 96 h, +IPTG cells, read-out: IC50 of paclitaxel, clone #1): 0.00242 µM
- IC50 (FaDu cells; 96 h, +IPTG cells, read-out: IC50 of paclitaxel, clone #2): 0.00253 µM
- IC50 (FaDu cells; 96 h, +antisense cells (no IPTG), read-out: IC50 of paclitaxel, clone #1): 0.00246 µM
- IC50 (FaDu cells; 96 h, +antisense cells (no IPTG), read-out: IC50 of paclitaxel, clone #2): 0.00287 µM
- IC50 (FaDu cells; 96 h, +sense +IPTG cells, read-out: IC50 of paclitaxel, clone #1): 0.00256 µM
- IC50 (FaDu cells; 96 h, +sense +IPTG cells, read-out: IC50 of paclitaxel, clone #2): 0.00221 µM
- IC50 (FaDu cells; 96 h, Control cells, read-out: IC50 of paclitaxel, clone #1): 0.00204 µM
- IC50 (FaDu cells; 96 h, Control cells, read-out: IC50 of paclitaxel, clone #2): 0.00205 µM
- IC50 (FaDu cells; +antisense +IPTG cells (IPTG 44 days), read-out: IC50 of paclitaxel, clone #1): 0.0013 µM
- IC50 (FaDu cells; +antisense +IPTG cells (IPTG 57 days), read-out: IC50 of paclitaxel, clone #2): 0.00133 µM
- median time to reach moribundity ([12]; Kaplan Meier analysis, monitored for 100 days): 42 days
- % Apoptotic cells per tumor ([12]; day 10 tumors, Mean ± SD): 30 ± 17%^a
- Number of apoptotic cells per 400x field ([12]; day 10 tumors, Mean ± SD): 66 ± 34^a
- Number of nonapoptotic cells per 400x field ([12]; day 10 tumors, Mean ± SD): 168 ± 53^a
- End-of-experiment body weight, % of pretreatment value ([12]; mouse, in vivo): 97 ± 6^a % of pretreatment value
- body weight loss compared to the pretreatment weight ([12]; mouse, in vivo): < 3%
- tumor-free survivors ([12]; of 12 animals): did not show tumor-free survivors
- toxicity-related death ([12]; single agents): no toxicity-related death
